{"source": "patent US8735364B2", "about": "“Antisense modulation of apolipoprotein B expression” (Genzyme Corporation, priority 2001, dated 2014)", "type_in_all_cases": "in vivo, mouse", "key": {"[1]": {"assay": "Liver enzyme levels, lean vs high fat fed C57BL/6 mice", "conditions": "for Liver Enzymes ALT Percent Change / Liver Enzymes AST Percent Change: 50 mg/kg i.p. every three days, six weeks", "description": "Male C57BL/6 mice were divided into two matched groups; (1) wild-type control animals (lean animals) and (2) animals receiving a high fat diet (60% kcal fat). Control animals received saline treatment and were maintained on a normal rodent diet. After overnight fasting, mice from each group were dosed intraperitoneally every three days with saline or 50 mg/kg ISIS 147764 (SEQ ID No: 109) for six weeks. At study termination and forty eight hours after the final injections, animals were sacrificed and evaluated for target mRNA levels in liver, cholesterol and triglyceride levels, liver enzyme levels and serum glucose levels."}, "[2]": {"assay": "Serum cholesterol and triglyceride levels, high fat fed mice, 6 week study", "conditions": "for Percent Inhibition of cholesterol levels: normalized to saline; for triglycerides / serum cholesterol: study end; for triglycerides: control 115 mg/dL; for serum cholesterol: control 240 mg/dL", "description": "(§1) Male C57BL/6 mice (n=8) receiving a high fat diet (60% kcal fat) were evaluated over the course of 6 weeks for the effects of treatment with the antisense oligonucleotide, ISIS 147764. Control animals received saline treatment (50 mg/kg). A subset of animals received a daily oral dose (20 mg/kg) atorvastatin calcium (Lipitor®, Pfizer Inc.). All mice, except atorvastatin-treated animals, were dosed intraperitoneally every three days (twice a week), after fasting overnight, with 5, 25, 50 mg/kg ISIS 147764 (SEQ ID No: 109) or saline (50 mg/kg) for six weeks. Serum cholesterol and lipoproteins were analyzed at 0, 2 and 6 week interim timepoints. At study termination, animals were sacrificed 48 hours after the final injections and evaluated for levels of target mRNA levels in liver, cholesterol, lipoprotein, triglyceride, liver enzyme (AST and ALT) and serum glucose levels as well as body, liver, spleen and fat pad weights.\n(§2) Male C57BL/6 mice (n=8) receiving a high fat diet (60% kcal fat) were evaluated over the course of 6 weeks for the effects of ISIS 147764 on serum cholesterol and triglyceride levels. Control animals received saline treatment (50 mg/kg). Mice were dosed intraperitoneally every three days (twice a week), after fasting overnight, with 5, 25, 50 mg/kg ISIS 147764 (SEQ ID No: 109) or saline (50 mg/kg) for six weeks.\nValues in the table are expressed as percent inhibition and are normalized to the saline control.\nIn addition to serum cholesterol, at study termination, animals were sacrificed 48 hours after the final injections and evaluated for triglyceride levels."}, "[3]": {"assay": "Serum glucose levels, high fat fed mice, 6 week study", "conditions": "study termination, saline control 300 mg/dL", "description": "as §1\nas §2, with “glucose” for “cholesterol and triglyceride”\nAt study termination, animals were sacrificed 48 hours after the final injections and evaluated for serum glucose levels. […] Mice treated with atorvastatin at a daily oral dose of 20 mg/kg had serum glucose levels of 215 mg/dL."}, "[4]": {"assay": "Body, spleen, liver and fat pad weight, high fat fed mice, 6 week study", "conditions": "compared to saline-treated controls", "description": "as §1\nas §2, with “body, spleen, liver” for “serum cholesterol”, “fat pad weight.” for “triglyceride levels.”\nAt study termination, animals were sacrificed 48 hours after the final injections and body, spleen, liver and fat pad weights were measured. Values are expressed as percent change in body weight or ogan weight compared to the saline-treated control animals. Data from mice treated with atorvastatin at a daily dose of 20 mg/kg are also shown in the table Negative values indicated a decrease in weight."}, "[5]": {"test_system": "apolipoprotein B mRNA", "assay": "Target mRNA levels in liver of ApoE knockout mice, RT-PCR", "conditions": "six weeks", "description": "(§3) Female ApoE knockout mice ranged in age from 5 to 7 weeks and were placed on a normal diet for 2 weeks before study initiation. ApoE knockout mice were then fed ad libitum a 60% fat diet, with 0.15% added cholesterol to induce dyslipidemia and obesity. Control animals were maintained on a high-fat diet with no added cholesterol After overnight fasting, mice from each group were dosed intraperitoneally every three days with saline, 50 mg/kg of a control antisense oligonucleotide (ISIS 29837 […]; SEQ ID NO. 124) or 5, 25 or 50 mg/kg ISIS 147764 (SEQ ID No: 109) for six weeks.\n(§4) At study termination and forty eight hours after the final injections, animals were sacrificed and evaluated for target mRNA levels in liver by RT-PCR methods verified by Northern Blot analysis, glucose levels, cholesterol and lipid levels by HPLC separation methods and triglyceride and liver enzyme levels (perfomed by LabCorp Preclinical Services; San Diego, Calif.). Data are normalized to saline controls."}, "[6]": {"assay": "Glucose, cholesterol and lipoprotein levels in ApoE knockout mice", "conditions": "for Lipoprotein Levels HDL: Control 51; for Glucose Levels: Control 225; for Lipoprotein Levels LDL: Control 525; for Lipoprotein Levels VLDL: Control 1190; for Cholesterol Levels: Control 1750", "description": "as §3, §4"}}}
{"sequence": "GTCCCTGAAGATGTCAATGC (2'-MOE gapmer with phosphorothioates, pattern not given here) [ISIS 147764, 2′-MOE gapmer phosphorothioate oligonucleotide to mouse apolipoprotein B]", "values": [{"measurement": "Liver Enzymes ALT Percent Change", "setting": "[1]; high fat fed C57BL/6 mice", "result": "Slight"}, {"measurement": "Liver Enzymes AST Percent Change", "setting": "[1]; high fat fed C57BL/6 mice", "result": "Slight"}, {"measurement": "Liver Enzymes ALT Percent Change", "setting": "[1]; lean C57BL/6 mice", "result": "No"}, {"measurement": "Liver Enzymes AST Percent Change", "setting": "[1]; lean C57BL/6 mice", "result": "Slight"}, {"measurement": "changes in liver enzyme levels", "setting": "[1]; lean and high fat fed C57BL/6 mice, 50 mg/kg", "result": "No significant changes"}, {"measurement": "Percent Inhibition of cholesterol levels", "setting": "[2]; 5 mg/kg, 0 weeks", "result": 0, "unit": "%"}, {"measurement": "Percent Inhibition of cholesterol levels", "setting": "[2]; 5 mg/kg, 2 weeks", "result": 5, "unit": "%"}, {"measurement": "Percent Inhibition of cholesterol levels", "setting": "[2]; 5 mg/kg, 6 weeks", "result": 10, "unit": "%"}, {"measurement": "triglycerides", "setting": "[2]; 5 mg/kg", "result": 125, "unit": "mg/dL"}, {"measurement": "serum cholesterol", "setting": "[2]; 5 mg/kg", "result": 225, "unit": "mg/dL"}, {"measurement": "Percent Inhibition of cholesterol levels", "setting": "[2]; 25 mg/kg, 0 weeks", "result": 0, "unit": "%"}, {"measurement": "Percent Inhibition of cholesterol levels", "setting": "[2]; 25 mg/kg, 2 weeks", "result": 12, "unit": "%"}, {"measurement": "Percent Inhibition of cholesterol levels", "setting": "[2]; 25 mg/kg, 6 weeks", "result": 45, "unit": "%"}, {"measurement": "triglycerides", "setting": "[2]; 25 mg/kg", "result": 150, "unit": "mg/dL"}, {"measurement": "serum cholesterol", "setting": "[2]; 25 mg/kg", "result": 125, "unit": "mg/dL"}, {"measurement": "Percent Inhibition of cholesterol levels", "setting": "[2]; 50 mg/kg, 0 weeks", "result": 0, "unit": "%"}, {"measurement": "Percent Inhibition of cholesterol levels", "setting": "[2]; 50 mg/kg, 2 weeks", "result": 20, "unit": "%"}, {"measurement": "Percent Inhibition of cholesterol levels", "setting": "[2]; 50 mg/kg, 6 weeks", "result": 55, "unit": "%"}, {"measurement": "triglycerides", "setting": "[2]; 50 mg/kg", "result": 85, "unit": "mg/dL"}, {"measurement": "serum cholesterol", "setting": "[2]; 50 mg/kg", "result": 110, "unit": "mg/dL"}, {"measurement": "serum glucose levels", "setting": "[3]; 5 mg/kg", "result": 225, "unit": "mg/dL"}, {"measurement": "serum glucose levels", "setting": "[3]; 25 mg/kg", "result": 190, "unit": "mg/dL"}, {"measurement": "serum glucose levels", "setting": "[3]; 50 mg/kg", "result": 180, "unit": "mg/dL"}, {"measurement": "Fat pad weight Percent Change", "setting": "[4]; 5 mg/kg", "result": 10, "unit": "%"}, {"measurement": "Liver weight Percent Change", "setting": "[4]; 5 mg/kg", "result": 18, "unit": "%"}, {"measurement": "Spleen weight Percent Change", "setting": "[4]; 5 mg/kg", "result": 10, "unit": "%"}, {"measurement": "Total Body Wt. Percent Change", "setting": "[4]; 5 mg/kg", "result": 5, "unit": "%"}, {"measurement": "Fat pad weight Percent Change", "setting": "[4]; 25 mg/kg", "result": 6, "unit": "%"}, {"measurement": "Liver weight Percent Change", "setting": "[4]; 25 mg/kg", "result": 70, "unit": "%"}, {"measurement": "Spleen weight Percent Change", "setting": "[4]; 25 mg/kg", "result": 10, "unit": "%"}, {"measurement": "Total Body Wt. Percent Change", "setting": "[4]; 25 mg/kg", "result": 5, "unit": "%"}, {"measurement": "Fat pad weight Percent Change", "setting": "[4]; 50 mg/kg", "result": "−47", "unit": "%"}, {"measurement": "Liver weight Percent Change", "setting": "[4]; 50 mg/kg", "result": 80, "unit": "%"}, {"measurement": "Spleen weight Percent Change", "setting": "[4]; 50 mg/kg", "result": 46, "unit": "%"}, {"measurement": "Total Body Wt. Percent Change", "setting": "[4]; 50 mg/kg", "result": "−4", "unit": "%"}, {"measurement": "mRNA Percent Inhibition", "setting": "[5]; 5 mg/kg i.p. every three days", "result": 2, "unit": "%"}, {"measurement": "mRNA Percent Inhibition", "setting": "[5]; 25 mg/kg i.p. every three days", "result": 42, "unit": "%"}, {"measurement": "mRNA Percent Inhibition", "setting": "[5]; 50 mg/kg i.p. every three days", "result": 70, "unit": "%"}, {"measurement": "Lipoprotein Levels HDL", "setting": "[6]; 5 mg/kg", "result": 49, "unit": "mg/dL"}, {"measurement": "Glucose Levels", "setting": "[6]; 5 mg/kg", "result": 195, "unit": "mg/dL"}, {"measurement": "Lipoprotein Levels LDL", "setting": "[6]; 5 mg/kg", "result": 475, "unit": "mg/dL"}, {"measurement": "Lipoprotein Levels VLDL", "setting": "[6]; 5 mg/kg", "result": 1111, "unit": "mg/dL"}, {"measurement": "Cholesterol Levels", "setting": "[6]; 5 mg/kg", "result": 1630, "unit": "mg/dL"}, {"measurement": "Lipoprotein Levels HDL", "setting": "[6]; 25 mg/kg", "result": 62, "unit": "mg/dL"}, {"measurement": "Glucose Levels", "setting": "[6]; 25 mg/kg", "result": 209, "unit": "mg/dL"}, {"measurement": "Lipoprotein Levels LDL", "setting": "[6]; 25 mg/kg", "result": 500, "unit": "mg/dL"}, {"measurement": "Lipoprotein Levels VLDL", "setting": "[6]; 25 mg/kg", "result": 1194, "unit": "mg/dL"}, {"measurement": "Cholesterol Levels", "setting": "[6]; 25 mg/kg", "result": 1750, "unit": "mg/dL"}, {"measurement": "Lipoprotein Levels HDL", "setting": "[6]; 50 mg/kg", "result": 61, "unit": "mg/dL"}, {"measurement": "Glucose Levels", "setting": "[6]; 50 mg/kg", "result": 191, "unit": "mg/dL"}, {"measurement": "Lipoprotein Levels LDL", "setting": "[6]; 50 mg/kg", "result": 325, "unit": "mg/dL"}, {"measurement": "Lipoprotein Levels VLDL", "setting": "[6]; 50 mg/kg", "result": 1113, "unit": "mg/dL"}, {"measurement": "Cholesterol Levels", "setting": "[6]; 50 mg/kg", "result": 1490, "unit": "mg/dL"}]}
